Assay results reported in US20090280172A1, “GALENIC FORMULATIONS OF ORGANIC COMPOUNDS” (priority 2006, published 2009).

Assay: Bioavailability of transmucosal dosage forms of aliskiren compared with oral formulations
Format: in vivo
Settings: transmucosal route vs oral formulation e.g. as employed in WO2005/089729

**Q.** With `COCCCOc1cc(C[C@@H](C[C@H](N)[C@@H](O)C[C@H](C(=O)NCC(C)(C)C(N)=O)C(C)C)C(C)C)ccc1OC` [aliskiren, 2(S),4(S),5(S),7(S)-N-(3-amino-2,2-dimethyl-3-oxopropyl)-2,7-di(1-methylethyl)-4-hydroxy-5-amino-8-[4-methoxy-3-(3-methoxy-propoxy)phenyl]-octanamide] as the molecule, how does the “increase of bioavailability over the bioavailability of an oral formulation” value read?
**A.** The value was “at least three times”.
